Two compounds from US5106842A, “Antibiotic C-3 cyclobutenedione substituted (1-carba)cephalosporin compounds, compositions, and methods of use thereof” (Bristol-Myers Squibb Co., priority 1990, dated 1992) can be followed below.

One may read the MIC as the lowest concentration found to suppress growth.

Each structure is given as a SMILES string. Values after ≈ are worked out from the molar mass of the structure shown. Like-named read-outs stand apart in the source and are kept apart here. A value given as a limit tells only on which side of the number the result lay.

Test [1] deals with E. coli A15119. Kind of test: in vitro MIC vs. E. coli A15119. The class given is cell-based. As to conditions: Escherichia coli. The source says: Also included in the table is the in vitro MIC's.
(§1) MIC (mcg/ml) i.m. vs E. coli A15119

In test [2] the test system is E. coli A15119. Briefly: in vivo therapeutic efficacy after intramuscular administration to mice infected intraperitoneally (PD50). The settings on record: Escherichia coli, A15119, im. On the procedure:
The in vivo therapeutic efficacy of two representative compounds after intramuscular administration to mice infected intraperitoneally with 0.5 ml of various bacterial suspension is shown in Table I. The values are given in PD50 (dose in mg/kg) to give protection to 50% of the infected mice.
as §1

Where [3] appears, read: read-out: PD50 i.m. vs E. coli A15119, 41 LD50.

Compound `CO/N=C(\C(=O)N[C@@H]1C(=O)N2C(C(=O)O)=C(c3c(N)c(=O)c3=O)CC[C@H]12)c1csc(N)n1` (relative stereo) [Id6] registered an MIC in test [1] of 0.06 µg/mL (≈ 0.13 µM). In addition, the ED50 in test [2] (setting [3]) is < 0.098 mg/kg; in test [2] (read-out: PD50 i.m. vs E. coli A15119, 143 LD50), 1.7 mg/kg.

In test [1], `CO/N=C(\C(=O)N[C@@H]1C(=O)N2C(C(=O)O)=C(c3c(OC(C)C)c(=O)c3=O)CS[C@H]12)c1csc(N)n1` [Id3] registered an MIC of 1 µg/mL (≈ 1.92 µM). Besides, the ED50 is 1.4 mg/kg in test [2] (setting [3]) and > 25 mg/kg in test [2] (mice, i.m. dosing, infected i.p. with 0.5 ml bacterial suspension, challenge 143 LD50, dose protecting 50% of infected mice, read-out: PD50 i.m. vs E. coli A15119, 143 LD50).
